Data from US20210015793A1, “COMPOUNDS FOR TREATING CNS- AND NEURODEGENERATIVE DISEASES” (ETH ZURICH, priority 2018, published 2021).

System: Tg-TauP301L mice
Assay: Hippocampal PHF Tau hyperphosphorylation (AT8) in Tg-TauP301L model of tauopathy
Format: in vivo, mouse
Details: 12 months-old Tg-TauP301L mice treated for 6 months
Excerpt: For a genetic model of familial AD (FAD), Tg2576 mice (Taconic Biosciences, Rensselaer, N.Y., USA) were used with neuron-specific overexpression of human APPSwe, i.e the Swedish mutation of APP695 isolated from a Swedish family with FAD featuring the double mutation K670N/M671L (Hsiao et al., Science 274, 99-103 (1996)). As a genetic model of tauopathy, the Tg-TauP301L mice (Model 2508, Taconic Biosciences, Rensselaer, N.Y., USA) with neuron-specific expression of the most common FTDP-17 (frontotemporal dementia and parkinsonism linked to chromosome 17) mutation (Lewis et al., Nature Genetics 25, 402-405 (2000)) were used. To enhance neurodegeneration and neuronal loss, the CUMS (chronic unpredictable mild stress) protocol was performed with male 12 months-old Tg2576 mice for 3 months essentially as described (AbdAlla et al., J. Biol. Chem. 284, 6554-6565 (2009); AbdAlla et al., J. Biol. Chem. 284, 6566-6574 (2009)). […]
Similarly, hyperphosphorylated Tau was detected with AT8 antibody on paraffin-embedded brain sections from 12 months-old Tg-TauP301L mice (Model 2508, Taconic Biosciences, Rensselaer, N.Y., USA) without and with treatment with Compound-1 and Compound-4 for 6 months. […]

O=C(C1=C(O)C(c2ccccc2)N(c2ccc3c(c2)OCO3)C1=O)C1CC1 (centres unmarked) [Compound-1, 1-(1,3-benzodioxol-5-yl)-4-(cyclopropane-carbonyl)-3-hydroxy-2-phenyl-2H-pyrrol-5-one]
hippocampal content of hyperphosphorylated PHF-Tau (quantitative, [125I]-AT8 binding): significantly decreased hippocampal content of hyperphosphorylated PHF-Tau
PHF Tau hyperphosphorylation in hippocampal CA3 area (immunohistology) (8 mg/kg/d in drinking water): largely absent
